Like-named read-outs stand apart in the source and are kept apart here.
What was measured:
[1] = test system: murine respiratory tract tissue; settings: mouse, in vivo, 14 days
[2] = Pharmacokinetic study in healthy volunteers, inhaled route by nebulizer; format: in vivo, human; settings: GA by inhalation, FIGS. 13 and 14
Protocol: Alternative tests were conducted to verify the synergistic behavior of the compositions of interest. For this reason, the results of pharmacokinetic studies are described and disclosed herein below. The study was based on the application of different versions of the herein claimed pharmaceutical composition to healthy volunteers by the inhaled route of administration, by means of a nebulizer device. The volunteers were given the drug once every 24 hours for three days. In addition, blood samples were taken from them at different time points. These samples were analyzed to quantify glycyrrhizinic acid (GA) and Enoxolone (EN) contents through the mass coupled HPLC methodology. […]
Blood samples of 5 mL were taken from each of the individuals at 30 minutes and at 1, 2, 3, 6, 12, 24, 48, 72 and 96 hours after drug administration. Then, the AG and EN concentrations in these blood samples were determined using the mass coupled HPLC methodology. In all cases, both components were quantified.
The following tables denote pharmacokinetic results (Area Under the Curve (AUC)) of the two drugs assessed (GA and EN). The Area Under the Curve (AUC) is a parameter related to the drug quantity to which the body has been exposed. […] The AUC was calculated using the R programming language within the “PK” software bundle. […]

SARS-CoV = settings: culture cells; cited from earlier work
[3] = 75 mg of GA administered orally; cited from earlier work
[4] = test system: murine respiratory tract tissue; assay: Toxicity and irritability assay by the inhaled route in murine rodents, histopathological lesion score; settings: for Degenerative: Alveolar lesion score / Degenerative: Bronchial lesion score / Degenerative: Bronchiolar lesion score / Fibrosis: Alveolar Septa lesion score / Fibrosis: Peribronchial lesion score / Fibrosis: Peribronchiolar lesion score / Inflammatory: Bronchiolitis lesion score / Inflammatory: Bronchitis lesion score / Inflammatory: Hyaline Membrane lesion score / Inflammatory: Interstitial Pneumonia lesion score / Inflammatory: Vasculitis lesion score / Necrosis: Alveolar lesion score / Necrosis: Bronchial lesion score / Necrosis: Bronchiolar lesion score / Vascular: Alveolar edema lesion score / Vascular: Congestion lesion score / Vascular: Hemorrhage lesion score / Vascular: Interstitial edema lesion score / Vascular: Thrombosis lesion score / TOTAL damage and lesion rating: inhaled 10 min/day for 14 days; for Degenerative: Alveolar lesion score / Degenerative: Bronchial lesion score / Degenerative: Bronchiolar lesion score / Fibrosis: Alveolar Septa lesion score / Fibrosis: Peribronchial lesion score / Fibrosis: Peribronchiolar lesion score / Inflammatory: Bronchiolitis lesion score / Inflammatory: Bronchitis lesion score / Inflammatory: Hyaline Membrane lesion score / Inflammatory: Interstitial Pneumonia lesion score / Inflammatory: Vasculitis lesion score / Necrosis: Alveolar lesion score / Necrosis: Bronchial lesion score / Necrosis: Bronchiolar lesion score / Vascular: Alveolar edema lesion score / Vascular: Congestion lesion score / Vascular: Hemorrhage lesion score / Vascular: Interstitial edema lesion score / Vascular: Thrombosis lesion score: score 0-5; for TOTAL damage and lesion rating: sum of scores

For `CC1(C)[C@@H](O)CC[C@]2(C)[C@H]3C(=O)C=C4[C@@H]5C[C@@](C)(C(=O)O)CC[C@]5(C)CC[C@@]4(C)[C@]3(C)CC[C@@H]12` [EN, 18-β glycyrrhetinic acid], the “Degenerative: Alveolar lesion score” value [1] was 0, the “Fibrosis: Alveolar Septa lesion score” value [1] was 0 and the “Fibrosis: Peribronchial lesion score” value [1] was 0. The “Fibrosis: Peribronchiolar lesion score” value [1] was 0, the “Inflammatory: Bronchiolitis lesion score” value [1] was 0 and the “Inflammatory: Bronchitis lesion score” value [1] was 0. The “Inflammatory: Hyaline Membrane lesion score” value [1] was 0, the “Inflammatory: Vasculitis lesion score” value [1] was 0 and the “Necrosis: Alveolar lesion score” value [1] was 0. The “Necrosis: Bronchial lesion score” value [1] was 0, the “Necrosis: Bronchiolar lesion score” value [1] was 0 and the “Vascular: Alveolar edema lesion score” value [1] was 0. For the same compound, the “Vascular: Congestion lesion score” value [1] was 2, the “Vascular: Hemorrhage lesion score” value [1] was 1 and the “Vascular: Thrombosis lesion score” value [1] was 0.
In the case of `CC1(C)[C@@H](O[C@H]2O[C@H](C(=O)O)[C@@H](O)[C@H](O)[C@H]2O[C@@H]2O[C@H](C(=O)O)[C@@H](O)[C@H](O)[C@H]2O)CC[C@]2(C)[C@H]3C(=O)C=C4[C@@H]5C[C@@](C)(C(=O)O)CC[C@]5(C)CC[C@@]4(C)[C@]3(C)CC[C@@H]12` [GA, glycyrrhizic acid], the “Time of initial peak value” [2] is given as 60 min, the “Inhibition of SARS-CoV replication” value (SARS-CoV) is given as “prevented virus replication in culture cells” and the “EN concentration obtained by oral administration” value [3] is given as 200.3 ng/mL. For the same compound, the “Degenerative: Alveolar lesion score” value ([4]; High dosage) was 0, the “Degenerative: Bronchial lesion score” value ([4]; High dosage) was 1 and the “Degenerative: Bronchiolar lesion score” value ([4]; High dosage) was 1. The “Fibrosis: Alveolar Septa lesion score” value ([4]; High dosage) was 0, the “Fibrosis: Peribronchial lesion score” value ([4]; High dosage) was 0 and the “Fibrosis: Peribronchiolar lesion score” value ([4]; High dosage) was 0. For the same compound, the “Inflammatory: Bronchiolitis lesion score” value ([4]; High dosage) was 0, the “Inflammatory: Bronchitis lesion score” value ([4]; High dosage) was 0 and the “Inflammatory: Hyaline Membrane lesion score” value ([4]; High dosage) was 0. For the same compound, the “Inflammatory: Interstitial Pneumonia lesion score” value ([4]; High dosage) was 3.5, the “Inflammatory: Vasculitis lesion score” value ([4]; High dosage) was 0 and the “Necrosis: Alveolar lesion score” value ([4]; High dosage) was 0. The “Necrosis: Bronchial lesion score” value ([4]; High dosage) was 1, the “Necrosis: Bronchiolar lesion score” value ([4]; High dosage) was 0 and the “Vascular: Alveolar edema lesion score” value ([4]; High dosage) was 0. For the same compound, the “Vascular: Congestion lesion score” value ([4]; High dosage) was 2, the “Vascular: Hemorrhage lesion score” value ([4]; High dosage) was 2 and the “Vascular: Interstitial edema lesion score” value ([4]; High dosage) was 2. For the same compound, the “Vascular: Thrombosis lesion score” value ([4]; High dosage) was 0, the “TOTAL damage and lesion rating” value ([4]; High dosage) was 12.5 and the “Degenerative: Alveolar lesion score” value ([4]; Low dosage) was 0. For the same compound, the “Degenerative: Bronchial lesion score” value ([4]; Low dosage) was 0.5, the “Degenerative: Bronchiolar lesion score” value ([4]; Low dosage) was 0.5 and the “Fibrosis: Alveolar Septa lesion score” value ([4]; Low dosage) was 0. The “Fibrosis: Peribronchial lesion score” value ([4]; Low dosage) was 0, the “Fibrosis: Peribronchiolar lesion score” value ([4]; Low dosage) was 0 and the “Inflammatory: Bronchiolitis lesion score” value ([4]; Low dosage) was 0. The “Inflammatory: Bronchitis lesion score” value ([4]; Low dosage) was 0, the “Inflammatory: Hyaline Membrane lesion score” value ([4]; Low dosage) was 0 and the “Inflammatory: Interstitial Pneumonia lesion score” value ([4]; Low dosage) was 3. The “Inflammatory: Vasculitis lesion score” value ([4]; Low dosage) was 0, the “Necrosis: Alveolar lesion score” value ([4]; Low dosage) was 0 and the “Necrosis: Bronchial lesion score” value ([4]; Low dosage) was 0. For the same compound, the “Necrosis: Bronchiolar lesion score” value ([4]; Low dosage) was 0, the “Vascular: Alveolar edema lesion score” value ([4]; Low dosage) was 0 and the “Vascular: Congestion lesion score” value ([4]; Low dosage) was 2. For the same compound, the “Vascular: Hemorrhage lesion score” value ([4]; Low dosage) was 3, the “Vascular: Interstitial edema lesion score” value ([4]; Low dosage) was 1 and the “Vascular: Thrombosis lesion score” value ([4]; Low dosage) was 0. The “TOTAL damage and lesion rating” value ([4]; Low dosage) was 10 and the “Effect on basal lesions (in words)” value ([4]; increases according to the amount of administered drug) was “generation of additional lesions to the basal lesions”.

— patent publication US11931372B2, “Pharmaceutical composition containing pentacyclic triterpenoids” (SPV TIMSER, S.A.P.I. DE C.V., priority 2021, dated 2024)
